This is an account of results in article PMC6130628, “Some pharmacokinetic parameters of salvianolic acid A following single-dose oral administration to rats” (Pharmaceutical Biology, 2018).

The conditions of data set [1]: cited from earlier work.
The nature of data set [2]: Tissue distribution of Sal A in rats. The format is in vivo, Sprague-Dawley rats. Particulars: single oral dose 5 mg/kg. On the procedure: Twenty-four healthy, intact Sprague–Dawley rats (male/female, 1/1, 185–215 g, Certificate No. SCXK 2006-0009) were purchased from Vital River Laboratories (Beijing, China). The rats were maintained in air-conditioned animal quarters with alternating 12 h light/dark cycles at a room temperature of 22 ± 2 °C and a relative humidity of 50 ± 10%. The rodents were given a commercial rat chow and water ad libitum. The experiment started after acclimation to the facilities for 7 days. The animal protocols used in this study followed guidelines set forth by the Ethic Committee of Laboratory Animals of the Affiliated Hospital of Qingdao University (QYFYKYLL 2013-2-4-01).
Rats were fasted overnight (∼12 h) and had free access to water throughout the experimental period. In our study, rats were treated as followed: 18 rats were divided into 3 groups randomly (6 rats/group, male/female =1/1) and were all given a single oral dose of 5 mg/kg. The animals were sacrificed 10 min, 1 and 2 h postdosing and stomach, small intestine, heart, liver, spleen, lung, kidney and brain were harvested for drug analysis. The remaining six rats were given normal saline as control. Tissue samples were frozen and maintained at –80 °C immediately until analysis.
Tissues were homogenized in normal saline (2 mL/g, except 6 mL/g for stomach) using a FLUKO F6/10 for 1–2 min over an ice bath. The aliquots of 200 μL homogenized tissues were used for the LC–MS analysis. The remaining steps were the same as sample preparation in “Pharmacokinetic study in vivo”.

On the set-up of data set [3]: method as in Sun et al. [2013]. Particulars: Beagle dogs, oral, pure form; ref Sun et al. [2013]; cited from earlier work.
Data set [4] can be described thus: Bidirectional transport experiments in the Caco-2 cell culture model. In kind it is in vitro ADME. Particulars: human; for Papp A→B at 180 min: read-out: Papp Apical → basolateral; for Papp B→A at 180 min: read-out: Papp Basolateral → apical. As for the experimental part: Caco-2 cells (passage number 34–36, American Type Culture Collection, Manassas, VA) were cultured at 37 °C in an atmosphere of 5% CO2 and 90% relative humidity in Dulbecco’s modified Eagle’s medium supplemented with 10% fetal bovine serum, 1% penicillin–streptomycin, 1% HEPES, 1% sodium pyruvate and 1% minimal essential medium nonessential amino acids. After harvesting at 90% confluence, the cells were seeded on to 0.4 μm polycarbonate membrane transwell inserts (12 mm diameter) at a density of 1.5 × 10^5 cells/cm^2. The culture media was changed every other day during the first 7 days after seeding and once a day thereafter. Cell monolayers were ready for experiments from 20 to 24 days postseeding.
Experiments in triplicate were performed in HBSS (pH =7.4).To ensure the stability of Sal A in HBSS, VC was applied in this study as stabilizer. The monolayers were washed three times with prewarmed HBSS (37 °C) before use. The integrity of the Caco-2 monolayers was monitored by measuring the transepithelial electrical resistance, and only monolayers with values ≥400 Ω/cm^2 were used. The monolayers were incubated with HBSS at 37 °C for 30 min, and then the incubation medium was aspirated. Afterwards, bidirectional transport experiments were conducted. Sal A solution of appropriate concentrations in HBSS (containing VC 1 0^−4 mol/L) were loaded to the donor compartments and the blank HBSS (containing VC 1 0^−4 mol/L) was added to the receiver compartments. Seven sequential samples (50 μL) were collected at different times (0, 30, 60, 90, 120, 150, 180 min) from the receiver side. The same volume of receiver medium was replaced after each sampling. The collected samples were added into tubes with 40 μL MeOH–H2O (50:50, v/v, containing VC 100 μg/mL). Then, 10 μL of the IS spiking solution (butyl paraben, 1 μg/mL) was added. After centrifugation at 13,400 rpm for 5 min, 20 μL of the supernatant was injected to the LC–MS system.
Influence of the stabilizer on the transport of Sal A has also been tested under the condition of different concentrations of VC. The samples were collected, treated and analyzed according to the same procedure.
The apparent permeability coefficient (Papp) was calculated according to the following equation: Papp=(ΔQ/Δt)/(A×C0) where ΔQ/Δt is the linear appearance rate of the tested compound in the receiver compartments, A is the surface area of the cell monolayer and C0 is the initial concentration of the tested compound in the donor side.
For orientation: Caco-2 cells form a polarised layer with tight junctions and transporters.

Data set [5] in a line: Excretion of Sal A from rats (feces, urine, bile; UPLC–MS/MS). Particulars: single oral dose 20 mg/kg. In kind it is in vivo, Sprague-Dawley rats. As for the experimental part: Twelve healthy, intact Sprague-Dawley rats (male/female, 1/1, 185-215 g, Certificate No. SCXK 2006-0009) were purchased from Vital River Laboratories (Beijing, China). The rats were maintained in air-conditioned animal quarters with alternating 12 h light/dark cycles at a room temperature of 22 ± 2 °C and a relative humidity of 50 ± 10%. The rodents were given a commercial rat chow and water ad libitum. The experiment started after acclimation to the facilities for 7 days. The studies were conducted under protocols approved by the Ethics Committee of Laboratory Animals of the Affiliated Hospital of Qingdao University ([…] 2013-2-4-01). In the urine and feces excretion studies, rats were treated as follows. After acclimation to the facilities for 7 days in metabolism cages and being fasted overnight (∼12 h) with free access to water, six rats (male/female, 1/1) were given a single dose of Sal A at 20 mg/kg orally. Blank feces and urine were got prior to administration. […] These samples were immediately frozen and maintained at -80 °C until analysis. In the bile excretion study, rats were treated as follows. After acclimation to the facilities for 7 days and being fasted overnight (∼12 h) with free access to water, six rats (male/female, 1/1) received a bile duct intubation surgery. An oral dose of 20 mg/kg were given to the postoperative awake rats, and bile samples were collected prior and after the administration (from 0 to 2, 2 to 4, 4 to 6, 6 to 8, 8 to 12 and 12 to 24 h). The samples were immediately frozen and maintained at -80 °C immediately until analysis. After drying, feces were soaked in purified water containing VC 100 μg/mL (5 mL/g) overnight and treated with ultrasonic for 10 min. Homogenate was centrifuged at 13,400 rpm for 10 min. 200 μL of the supernatant was got for the UPLC-MS/MS analysis, along with 200 μL of urine and bile samples. Sample preparation was the same as sample preparation in “Pharmacokinetic study in vivo”.

Setting [6] is: Caco-2, pH 7.4, Sal A 10^–4/3 mol/L, HBSS pH 7.4, VC 10^−4 mol/L.
The mark [7] stands for this setting: Caco-2, pH 7.4, Sal A 10^–4/9 mol/L, HBSS pH 7.4, VC 10^–4 mol/L.
The mark [8] stands for this setting: Caco-2, pH 7.4, Sal A 10^–4/9 mol/L, VC 10^–3/3 mol/L.
Where [9] appears, read: Caco-2, pH 7.4, Sal A 10^–4/9 mol/L, VC 10^–3 mol/L.
Where [10] appears, read: Caco-2, pH 7.4, Sal A 10^–4/27 mol/L, HBSS pH 7.4, VC 10^−4 mol/L.

Entries after “also recorded” stand apart in the source; their conditions may differ. Read-outs that look alike come from different tables or passages of the source.

`O=C(/C=C/c1ccc(O)c(O)c1/C=C/c1ccc(O)c(O)c1)O[C@H](Cc1ccc(O)c(O)c1)C(=O)O` [Sal A, Salvianolic acid A]: the “stability in intestinal alkaline environment” value in data set [1] (alkaline environment, ref Liu et al. [2011]) is “instability”. In data set [1] (distilled water, room temperature, ref Xu et al. [2008]), the “stability in distilled water” value is “instable”. The “presence in brain homogenate” value in data set [2] is on record as “detected in brain homogenate”. Also, the “time to distribute into tissues” value in data set [2] was no more than 10 min. Also, in data set [2] (10 min, 1 and 2 h, 5 mg/kg), the “tissue with highest concentration” value is “stomach followed by small intestine and liver; also recorded: highest tissue concentration was found in stomach”. Further, the absolute bioavailability in data set [3] is 1.25%. Further, the Papp A→B at 180 min was 0.156 ± 0.0412 ×10⁻⁶ cm/s in data set [4] (setting [6]); 0.152 ± 0.0055 ×10⁻⁶ cm/s in data set [4] (setting [7]); 0.155 ± 0.003 ×10⁻⁶ cm/s in data set [4] (setting [8]); 0.153 ± 0.0028 ×10⁻⁶ cm/s in data set [4] (setting [9]); 0.641 ± 0.0576 ×10⁻⁶ cm/s in data set [4] (setting [10]). The Papp B→A at 180 min was 0.508 ± 0.0118 ×10⁻⁶ cm/s in data set [4] (setting [6]); 0.605 ± 0.0175 ×10⁻⁶ cm/s in data set [4] (setting [7]); 0.507 ± 0.087 ×10⁻⁶ cm/s in data set [4] (setting [8]); 0.478 ± 0.0453 ×10⁻⁶ cm/s in data set [4] (setting [9]); 0.987 ± 0.121 ×10⁻⁶ cm/s in data set [4] (setting [10]). Further, the efflux ratio at 180 min in data set [4] (pH 7.4, Caco-2 monolayer, read-out: ratio of PB–A to PA–B (Papp basolateral to apical / apical to basolateral)) is roughly 3. Further, in data set [5] (bile duct intubated rats, 0–24 h), the “excretion via bile, mean % of the dose” value is listed as 0.00373%. Also, the dose excreted in data set [5] (both sexes, Sprague-Dawley, rat, feces, bile and urine, rats, read-out: recovery (accumulated excretion through feces, bile and urine), % of administered dose) is less than 1%. The “urinary excretion, mean % of the dose” value in data set [5] (rats, 0–96 h) turned out to be 0.00252%.
